Each structure is given as a SMILES string. Structures can show the parent of a compound that is named as a salt.

1 compound from patent publication US20220169637A1, “SOLID FORMS OF ENCEQUIDAR MESYLATE AND PROCESSES THEREOF” (DR. REDDY'S LABORATORIES LIMITED, priority 2019, published 2022) can be followed below.

A short description of this series: Stress stability of crystalline Form EM1 (moisture content, XRPD pattern). The format is physicochemical. The method, then: In an embodiment, the open sample of Form EM1 is stable at 25° C. for at least 24 hours. In an embodiment, the open sample of Form EM1 is stable under heating in air tray drier at 60° C. for at least 24 hours. In an embodiment, the open sample of Form EM1 is stable at 40° C. and 75% RH condition for at least 24 hours. In an embodiment, the open sample of Form EM1 is stable at 25° C. and 85% RH for at least 24 hours. In an embodiment, the open sample of Form EM1 is stable under UV exposure for at least 16 hours.

As to `COc1cc2c(cc1OC)CN(CCc1ccc(-n3nnc(-c4cc(OC)c(OC)cc4NC(=O)c4cc(=O)c5ccccc5o4)n3)cc1)CC2` [Form EM1, Encequidar mesylate], the “Moisture content (%)” value is, setting by setting: (Initial) 6.95%; (Open 25° C., 24 hours) 5.94%; (Open 40° C./75% RH, 24 hours) 5.71%; (Open 60° C., 24 hours) 5.5%; (UV exposed, 24 hours) 6.26%. The XRPD pattern entry is, setting by setting: (Initial) “Form EM1”; (Open 25° C., 24 hours) “Form EM1”; (Open 40° C./75% RH, 24 hours) “Form EM1”; (Open 60° C., 24 hours) “Form EM1”; (UV exposed, 24 hours) “Form EM1”. In addition, the Time stable entry (open sample at 25° C.) is “at least 24 hours”; the Time stable entry (open sample at 25° C. and 85% RH) is recorded as “at least 24 hours”; the Time stable entry (open sample at 40° C. and 75% RH) is listed as “at least 24 hours”; the Time stable entry (open sample under UV exposure) is listed as “at least 16 hours”; the Time stable result (open sample, heating in air tray drier at 60° C.) is “at least 24 hours”. Also, where the note is “stress conditions for 24 hours”, the “Stability under tabulated stress conditions” value is listed as “found to be stable”. Under “stressed samples, FIG. 5”, the “Change in weight or moisture content and X-ray diffraction patterns” value was “No significant change”.
